Experimental data from patent US20120142771A1, “BIPHENYLACETAMIDE DERIVATIVE” (Dainippon Sumitomo Pharma Co., Ltd., priority 2008, published 2012).

Tests used:
[1] = system: subcutaneously pentetrazol-injected model (scPTZ); assay: Subcutaneously pentetrazol-injected model (scPTZ) test; assay type: in vivo, mice; details: pentetrazol 85 mg/kg s.c. after 1 hour
Procedure, shortened: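 Pentetrazol (85 mg/kg, s.c.) was injected one hour after oral test compound at 50 or 100 mg/kg in groups of three male Slc:ddY mice weighing 20-30 g; vehicle controls got 0.5% tragacanth or 0.5% methylcellulose.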

Slc: C57BL/6J male mice = assay: Evaluation of antimanic effect (methamphetamine and chlordiazepoxide induced hyperactivity, locomotor distance); assay type: in vivo; details: methamphetamine 4 mg/kg and chlordiazepoxide 10 mg/kg i.p.
From the text: (§1) Meanwhile, there are no reports about animal models which provide a good clinical prediction to evaluate the improving efficacy for bipolar disorder. However, bipolar disorder comprises “manic state” and “depressive state”, and some animals are reported to be useful as a model to evaluate the improvement of each pathological condition individually. In general, an index of manic state is excessive hyperactivity induced by administering methamphetamine and chlordiazepoxide in combination, and that of depressive state is immobility induced by forced swimming.
Test 7: Evaluation of Antimanic Effect
Test 7 evaluates the antimanic effect of medicaments. The evaluation system is a test system whose utility has been already confirmed with a known antimanic agent which is clinically used as a mood-stabilizing drug, not as a drug for treating schizophrenia (Arban et al., Behay. Brain Res., 158:123-132, 2005, Foreman et al., Pharmacol. Biochem. Behay., 89: 523-534, 2008). Test compounds were orally administered to Slc: C57BL/6J male mice (8 mice in each group, body weight 20-26 g). After 30 minutes of administration, methamphetamine (4 mg/kg) and chlordiazepoxide (10 mg/kg) were administered intraperitoneally. Then, the mice were allowed to move freely in an acrylic cage (W 360 mm×D 230 mm×H 310 mm) for 90 minutes. The locomotor distances of the mice were measured with Ethovision software (Ver. 3.1). Among the 90 minutes, the result of the latter 60 minutes with the exception of the first 30 minute's result for adaptation to the new environment was used as data of the locomotor distance. The antimanic effect was evaluated by calculating how long locomotor distance was shortened against the control. To the control mice, 0.5% methylcellulose solution was administered.

[2] = system: maximum electroshock seizure (MES) model; assay: Maximum electroshock seizure (MES) model test; assay type: in vivo, mice
Procedure, shortened: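 Tonic hind-limb extension was elicited by corneal electroshock (60 Hz, 25 mA, 0.2 s) 1 h after oral dosing. Test compounds were given at 50 or 100 mg/kg to groups of 3 male Slc: ddY mice (20-30 g), vehicle controls receiving 0.5% tragacanth or 0.5% methylcellulose solution.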

Crl: CD (SD) male rats = assay: Evaluation of antidepressant effect (forced swimming, duration of immobility); assay type: in vivo
From the text: as §1
Test 6: Evaluation of Antidepressant Effect
Test 6 is a typical test to evaluate the antidepressant activity of medicaments (Porsolt et al., Nature, 266: 730-732, 1977, Porsolt et al., Eur. J. Pharmacol., 47: 379-391, 1978). Crl: CD (SD) male rats (12 rats in each group, body weight 200-250 g) were forced to swim for 15 minutes in a water pool with 200 mm diameter. In the pool, water was filled up to a depth of 205 mm from the bottom of the pool, and thus the rats could not touch the bottom of the pool with their hind limbs. Fifteen minutes after the completion of the forced swimming, test compounds were orally administered to the rats. On the next day, the test compounds were administered to the rats at the same dose as the previous day, and the rats were put in the pool for 5 minutes at the same clock time as the previous day. […] The antidepressant effect was evaluated by calculating how long the duration of immobility was shortened against the control. To the control, 0.5% methylcellulose solution was administered.

[3] = system: 6 Hz psychomotor seizure model; assay: 6 Hz psychomotor seizure model; assay type: in vivo, mice; details: mice
Procedure, shortened: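 Anticonvulsant activity was tested in the 6 Hz psychomotor seizure model in mice, a model reflecting seizures resistant to current antiepileptic drugs. 30 minutes or an hour after dosing, corneal electrical stimulation (6 Hz, 32 mA, 3 seconds) was applied to provoke forelimb myoclonus, Straub tail and immobility. Control mice received 0.5% tragacanth solution, 0.5% methylcellulose solution or olive oil.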

## NC(=O)Cc1ccccc1-c1ccccc1F [Example 1, 2-(2′-Fluorobiphenyl-2-yl)acetamide]
[1]; Mus musculus, po, 1 h, 50 mg/kg oral, Slc: ddY male mice, 3 per group, observed 30 minutes for clonic convulsion, read-out: scPTZ (positive number/tested number) (converted)
  responders at 50 mg/kg: 66.7%
[1]; Mus musculus, po, 1 h, 100 mg/kg oral, Slc: ddY male mice, 3 per group, observed 30 minutes for clonic convulsion, read-out: scPTZ (positive number/tested number) (converted)
  responders at 100 mg/kg: 66.7%
[1]; mice, oral 50 or 100 mg/kg
  anticonvulsant action in subcutaneously pentetrazol-injected model (scPTZ) test: anticonvulsant action was observed
Slc: C57BL/6J male mice; 30 mg/kg oral
  The rate of the shortened locomotor-distance (% control): 24.1 % control
Slc: C57BL/6J male mice; 60 mg/kg oral
  The rate of the shortened locomotor-distance (% control): 43.8 % control
Slc: C57BL/6J male mice; 100 mg/kg oral
  The rate of the shortened locomotor-distance (% control): 73.8 % control
[2]; Mus musculus, po, 1 h, 50 mg/kg oral, Slc: ddY male mice, 3 per group, electrical stimulation 1 hour after administration, inhibition of hind limb extension, read-out: MES (positive number/tested number) (converted)
  responders at 50 mg/kg: 100%
[2]; Mus musculus, po, 1 h, 100 mg/kg oral, Slc: ddY male mice, 3 per group, electrical stimulation 1 hour after administration, inhibition of hind limb extension, read-out: MES (positive number/tested number) (converted)
  responders at 100 mg/kg: 100%
[2]; mice, oral 50 or 100 mg/kg, 1 hour after administration
  anticonvulsant action in maximum electroshock seizure (MES) model test: anticonvulsant action was observed
Crl: CD (SD) male rats; 10 mg/kg oral
  The rate of the shortened duration of immobility (% control): 23.4 % control
Crl: CD (SD) male rats; 30 mg/kg oral
  The rate of the shortened duration of immobility (% control): 24.9 % control
[3]; Mus musculus, 6 Hz psychomotor seizure model, oral, read-out: ED50
  ED50: 56.2 mg/kg
[3]; oral administration at a dose of 100 mg/kg
  efficacy in 6 Hz psychomotor seizure model: potent efficacy
[3]; oral, dose 100 mg/kg, 30 minutes or 1 hour after administration
  6 Hz (Positive number/tested number): 10/10/100
